Experimental data from patent publication US20240174662A1, “SMALL MOLECULE INHIBITORS OF SALT INDUCIBLE KINASES” (Janssen Biotech, Inc., priority 2021, published 2024).
pIC50: −log10 of the molar value.

Target: SIK2 (Homo sapiens (Human), UniProt Q9H0K1)
Test: SIK2 Enzymatic Assay Version 2 (High ATP)
Assay type: biochemical
Details: 3 mM ATP and 200 μM HDAC5tide final, ADP-Glo Max luminescence
In short: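 Luminescent ADP-Glo Max read-out: depletion reagent 2 h, then detection reagent 1 h. Before the reaction, compounds were incubated 30 min with enzyme added at 6 nM (twice final concentration), with all steps at room temperature.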

Sequence of SIK2 (Q9H0K1 whole entry, species assumed): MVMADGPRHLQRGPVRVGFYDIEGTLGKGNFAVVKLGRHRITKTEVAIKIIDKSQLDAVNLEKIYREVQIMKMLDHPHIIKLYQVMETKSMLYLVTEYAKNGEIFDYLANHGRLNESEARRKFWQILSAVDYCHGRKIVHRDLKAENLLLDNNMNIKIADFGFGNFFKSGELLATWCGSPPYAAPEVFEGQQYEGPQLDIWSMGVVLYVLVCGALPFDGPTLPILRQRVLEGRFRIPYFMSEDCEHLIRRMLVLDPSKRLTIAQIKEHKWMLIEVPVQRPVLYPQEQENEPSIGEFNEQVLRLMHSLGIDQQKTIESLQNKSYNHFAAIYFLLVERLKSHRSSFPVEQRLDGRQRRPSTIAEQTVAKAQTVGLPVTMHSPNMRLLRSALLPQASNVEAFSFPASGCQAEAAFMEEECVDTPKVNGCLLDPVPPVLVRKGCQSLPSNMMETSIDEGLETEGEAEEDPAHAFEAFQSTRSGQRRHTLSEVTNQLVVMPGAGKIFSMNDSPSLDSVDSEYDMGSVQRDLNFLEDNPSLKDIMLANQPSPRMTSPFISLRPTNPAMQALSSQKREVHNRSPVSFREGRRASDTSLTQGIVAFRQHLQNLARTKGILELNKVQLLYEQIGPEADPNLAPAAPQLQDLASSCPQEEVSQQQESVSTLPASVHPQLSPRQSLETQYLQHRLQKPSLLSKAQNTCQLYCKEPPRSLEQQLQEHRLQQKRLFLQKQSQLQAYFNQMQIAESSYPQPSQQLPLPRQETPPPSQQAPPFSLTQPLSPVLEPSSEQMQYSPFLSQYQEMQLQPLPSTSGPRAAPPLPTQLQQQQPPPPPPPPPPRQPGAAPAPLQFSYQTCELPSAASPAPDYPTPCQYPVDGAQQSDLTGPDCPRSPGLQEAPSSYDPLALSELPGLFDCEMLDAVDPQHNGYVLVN

Structure (SMILES) | pIC50
CNC(=O)c1cc(Nc2cc3cc(-c4c(OC[C@H]5CCN5C)cnn4C)ccn3n2)nc(C)n1 [Example 120, N,2-dimethyl-6-[[5-[2-methyl-4-[[(2R)-1-methylazetidin-2-yl]methoxy]pyrazol-3-yl]pyrazolo[1,5-a]pyridin-2-yl]amino]pyrimidine-4-carboxamide] | 7.63
CCN1CC[C@@H]1COc1cnn(C)c1-c1ccn2nc(Nc3cc(C(F)(F)F)nc(C)n3)cc2c1 [Example 162, 5-[4-[[(2R)-1-ethylazetidin-2-yl]methoxy]-2-methyl-pyrazol-3-yl]-N-[2-methyl-6-(trifluoromethyl)pyrimidin-4-yl]pyrazolo[1,5-a]pyridin-2-amine] | > 9.07
Cc1cc(C(=O)NC(C)C)cc(Nc2cc3cc(-c4c(OC[C@H]5CCN5C)cnn4C)ccn3n2)n1 [Example 112, N-isopropyl-2-methyl-6-[[5-[2-methyl-4-[[(2R)-1-methylazetidin-2-yl]methoxy]pyrazol-3-yl]pyrazolo[1,5-a]pyridin-2-yl]amino]pyridine-4-carboxamide] | 8.57
CCN1CC[C@@H]1COc1cnn(C)c1-c1ccn2nc(Nc3ccc(=O)n(C)n3)cc2c1 [Example 170, 6-[[5-[4-[[(2R)-1-ethylazetidin-2-yl]methoxy]-2-methyl-pyrazol-3-yl]pyrazolo[1,5-a]pyridin-2-yl]amino]-2-methyl-pyridazin-3-one] | 9.05
CN1CC[C@H](Oc2cnn(C)c2-c2ccn3nc(Nc4ccnc(C(F)(F)F)n4)cc3c2)C1 [Example 458, 5-[2-methyl-4-[(3S)-1-methylpyrrolidin-3-yl]oxy-pyrazol-3-yl]-N-[2-(trifluoromethyl)pyrimidin-4-yl]pyrazolo[1,5-a]pyridin-2-amine] | 6.78
Cc1cc(Nc2cc3cc(-c4c(OC[C@H]5CCN5C[C@H](C)O)cnn4C)ccn3n2)nc(C)n1 [Example 292, (2S)-1-[(2R)-2-[[5-[2-[(2,6-dimethylpyrimidin-4-yl)amino]pyrazolo[1,5-a]pyridin-5-yl]-1-methyl-pyrazol-4-yl]oxymethyl]azetidin-1-yl]propan-2-ol] | > 9.07
COc1nnc(Nc2cc3cc(-c4c(OC[C@H]5CCN5C)cnn4C)ccn3n2)cc1C [Example 121, N-(6-methoxy-5-methyl-pyridazin-3-yl)-5-[2-methyl-4-[[(2R)-1-methylazetidin-2-yl]methoxy]pyrazol-3-yl]pyrazolo[1,5-a]pyridin-2-amine] | 9.00
CN1[C@@H]2COC[C@H]1C[C@@H](OCc1cnn(C)c1-c1ccn3nc(NC(=O)C4CC4)cc3c1)C2 [Example 185, N-[5-[2-methyl-4-[[(1S,5R)-9-methyl-3-oxa-9-azabicyclo[3.3.1]nonan-7-yl]oxymethyl]pyrazol-3-yl]pyrazolo[1,5-a]pyridin-2-yl]cyclopropanecarboxamide] | 7.74
C[C@@H]1CNC[C@@H]1OCc1cnn(C)c1-c1ccn2nc(NC(=O)C3CC3)cc2c1 (single isomer, unassigned) [Example 196, (3*R, 4*R)—N-[5-[2-methyl-4-[(4-methylpyrrolidin-3-yl)oxymethyl]pyrazol-3-yl]pyrazolo[1,5-a]pyridin-2-yl]cyclopropanecarboxamide] | 7.61
Cc1onc(OC[C@H](c2ccccc2)N(C)C)c1-c1ccn2nc(NC(=O)C3CC3)cc2c1 [Example 207, N-[5-[3-[(2S)-2-(dimethylamino)-2-phenyl-ethoxy]-5-methyl-isoxazol-4-yl]pyrazolo[1,5-a]pyridin-2-yl]cyclopropanecarboxamide] | 8.12
CN1CC[C@@H]1COc1cnn(C)c1-c1ccn2nc(NC(=O)[C@H]3C[C@@H]3c3ccccc3)cc2c1 (racemic) [Example 71, trans-N-[5-[2-methyl-4-[((2R)-1-methylazetidin-2-yl)methoxy]pyrazol-3-yl]pyrazolo[1,5-a]pyridin-2-yl]-2-phenyl-cyclopropanecarboxamide] | 7.65
CN1CC[C@H](Oc2cnn(C)c2-c2ccn3nc(Nc4cnccn4)cc3c2)C1 [Example 450, 5-[2-methyl-4-[(3S)-1-methylpyrrolidin-3-yl]oxy-pyrazol-3-yl]-N-pyrazin-2-yl-pyrazolo[1,5-a]pyridin-2-amine] | 7.12
CO[C@H]1CNC[C@@H]1COc1cnn(C)c1-c1ccn2nc(NC(=O)C3CC3)cc2c1 [Example 351, N-[5-[4-[[(3R,4R)-4-methoxypyrrolidin-3-yl]methoxy]-2-methyl-pyrazol-3-yl]pyrazolo[1,5-a]pyridin-2-yl]cyclopropanecarboxamide] | 7.28
Cc1cc(Nc2cc3cc(-c4c(CO[C@H]5CN(C)C[C@H]5C)cnn4C)ccn3n2)nc(C)n1 (stereo in doubt) [Example 368, CIS—*R, *R—N-(2,6-dimethylpyrimidin-4-yl)-5-[4-[(1,4-dimethylpyrrolidin-3-yl)oxymethyl]-2-methyl-pyrazol-3-yl]pyrazolo[1,5-a]pyridin-2-amine] | 8.48
Cc1onc(OC[C@H]2C[C@@H](N)C2)c1-c1ccn2nc(NC(=O)C3CC3)cc2c1 [Example 319, N-[5-[3-[(3-aminocyclobutyl)methoxy]-5-methyl-isoxazol-4-yl]pyrazolo[1,5-a]pyridin-2-yl]cyclopropanecarboxamide] | 7.29
Cc1cc(Nc2cc3cc(-c4c(O[C@@H]5CCN(C)[C@H]5C)cnn4C)ccn3n2)nc(C)n1 [Example 354, N-(2,6-dimethylpyrimidin-4-yl)-5-[4-[(2S,3R)-1,2-dimethylpyrrolidin-3-yl]oxy-2-methyl-pyrazol-3-yl]pyrazolo[1,5-a]pyridin-2-amine] | 7.17
Cc1onc(OC[C@@]23CN[C@@H](CO2)C3)c1-c1ccn2nc(NC(=O)C3CC3)cc2c1 [Example 201, N-[5-[5-methyl-3-[[(1R,4R)-5-oxa-2-azabicyclo[2.2.1]heptan-4-yl]methoxy]isoxazol-4-yl]pyrazolo[1,5-a]pyridin-2-yl]cyclopropanecarboxamide] | 7.38
Cn1ncc(CO[C@H]2CCNC2)c1-c1ccn2nc(NC(=O)C3CC3)cc2c1 [Example 363, N-[5-[2-methyl-4-[[(3S)-pyrrolidin-3-yl]oxymethyl]pyrazol-3-yl]pyrazolo[1,5-a]pyridin-2-yl]cyclopropanecarboxamide] | 7.28
Cc1ncc(Nc2cc3cc(-c4c(OC[C@H]5CCN5C[C@H](C)O)cnn4C)ccn3n2)nc1C [Example 297, (2S)-1-[(2R)-2-[[5-[2-[(5,6-dimethylpyrazin-2-yl)amino]pyrazolo[1,5-a]pyridin-5-yl]-1-methyl-pyrazol-4-yl]oxymethyl]azetidin-1-yl]propan-2-ol] | > 9.07
Cc1cc(Nc2cc3cc(-c4c(OC[C@H]5CCN5)cnn4C)ccn3n2)nc(C(F)(F)F)n1 [Example 273, 5-[4-[[(2R)-azetidin-2-yl]methoxy]-2-methyl-pyrazol-3-yl]-N-[6-methyl-2-(trifluoromethyl)pyrimidin-4-yl]pyrazolo[1,5-a]pyridin-2-amine] | 7.74
Cc1cc(Nc2cc3cc(-c4c(OC[C@]5(O)CCOC5)cnn4C)ccn3n2)nc(C)n1 (single isomer, unassigned) [Example 439, (*S)-3-[[5-[2-[(2,6-dimethylpyrimidin-4-yl)amino]pyrazolo[1,5-a]pyridin-5-yl]-1-methyl-pyrazol-4-yl]oxymethyl]tetrahydrofuran-3-ol] | 6.76
CN1CC[C@H](Oc2cnn(C)c2-c2ccn3nc(Nc4cncc(C(F)(F)F)n4)cc3c2)C1 [Example 7, 5-[2-methyl-4-[(3S)-1-methylpyrrolidin-3-yl]oxy-pyrazol-3-yl]-N-[6-(trifluoromethyl)pyrazin-2-yl]pyrazolo[1,5-a]pyridin-2-amine] | 7.10
Cn1ncc(OC[C@H]2CCN2)c1-c1ccn2nc(NC(=O)C3CC3)cc2c1 [Example 346, (R)—N-(5-(4-(azetidin-2-ylmethoxy)-1-methyl-1H-pyrazol-5-yl)pyrazolo[1,5-a]pyridin-2-yl)cyclopropanecarboxamide] | 7.23
Cn1ncc(OC[C@H]2CCN2CC(C)(C)C#N)c1-c1ccn2nc(NC(=O)C3CC3)cc2c1 [Example 255, N-[5-[4-[[(2R)-1-(2-cyano-2-methyl-propyl)azetidin-2-yl]methoxy]-2-methyl-pyrazol-3-yl]pyrazolo[1,5-a]pyridin-2-yl]cyclopropanecarboxamide] | 7.29
CCN1CC2(CC2)[C@@H]1COc1cnn(C)c1-c1ccn2nc(NC(=O)C3CC3)cc2c1 (single isomer, unassigned) [Example 16, (*R)—N-(5-(4-((5-Ethyl-5-azaspiro[2.3]hexan-4-yl)methoxy)-1-methyl-1H-pyrazol-5-yl)pyrazolo[1,5-a]pyridin-2-yl)cyclopropanecarboxamide] | 6.66
Cn1ncc(OC[C@H]2C[C@H](N)C2)c1-c1ccn2nc(NC(=O)C3CC3)cc2c1 [Example 334, N-[5-[4-[(3-aminocyclobutyl)methoxy]-2-methyl-pyrazol-3-yl]pyrazolo[1,5-a]pyridin-2-yl]cyclopropanecarboxamide] | 7.26
CN1CC[C@@H]1COc1cnn(C)c1-c1ccn2nc(NC(=O)[C@@H]3C[C@@H]3c3ccccc3)cc2c1 (single isomer, unassigned) [Example 474, (1*R,2*S)—N-(5-(1-methyl-4-(((R)-1-methylazetidin-2-yl)methoxy)-1H-pyrazol-5-yl)pyrazolo[1,5-a]pyridin-2-yl)-2-phenylcyclopropane-1-carboxamide] | 6.37
CN1CC[C@H](Oc2cnn(C)c2-c2ccn3nc(Nc4cc5ccccn5n4)cc3c2)C1 [Example 344, 5-[2-methyl-4-[(3S)-1-methylpyrrolidin-3-yl]oxy-pyrazol-3-yl]-N-pyrazolo[1,5-a]pyridin-2-yl-pyrazolo[1,5-a]pyridin-2-amine] | 7.25
Cc1cc(Nc2cc3cc(-c4c(OC[C@@H]5CC(=O)N(C)C5)cnn4C)ccn3n2)nc(C)n1 (single isomer, unassigned) [Example 35, *R-4-[[5-[2-[(2,6-dimethylpyrimidin-4-yl)amino]pyrazolo[1,5-a]pyridin-5-yl]-1-methyl-pyrazol-4-yl]oxymethyl]-1-methyl-pyrrolidin-2-one] | 7.72
